According to patent publication US6319894A, “Complexes and combinations of fetuin with therapeutic agents” (The Picower Institute for Medical Research, priority 1997, dated 2001):
Structures can show the parent of a compound that is named as a salt. Where two headings read alike, the source gives them in different places.

What was measured:
rat paw edema = conditions: carageenan administration; background statement; cited from earlier work
[1] = test system: LPS-stimulated RAW 264.7 cells (TNF production); conditions: pre-treatment; prior studies; cited from earlier work
[2] = test system: mice, endotoxin (LPS) lethality; conditions: in vivo; background statement; cited from earlier work
[3] = test system: LPS-stimulated RAW 264.7 cells (inducible nitric oxide synthase, iNOS); assay: NO / nitrite production (Griess reaction, iNOS activity) in LPS-stimulated RAW 264.7 cells; format: cell-based, murine; conditions: for augmentation of CNI-1493 activity (nitrite production): glycoprotein 2.5 μg/ml, CNI-1493 2.0 μM, FIG. 13
Method: (§1) Typically, cultures were maintained in 150-mm plates with 30 mls culture medium until they reached 80-90% confluence, and were then subjected to different experimental protocols. […] The incubation was continued for another 24 hours before subjecting the cultures to further experiments.
(§2) LPS (endotoxin) was sonicated for 10 minutes and added to culture media to achieve the desired final concentration, typically 100 ng/ml.
Inducible nitric oxide synthase activity (iNOS) was assayed indirectly by measuring NO^2- production. NO^2- was measured by a colorimetric assay based on the Griess reaction. […] The optical density was read at 560 nm after 10 min, and NO^2- concentration was determined with reference to a standard curve by using concentrations of 1.5 to 50 μM sodium nitrite in culture medium.

[4] = test system: LPS-stimulated RAW 264.7 cells (IL-1 β, IL-6, MIP-1α, and MIP-1β); conditions: pre-treatment; prior studies; cited from earlier work
[5] = Charge at physiological pH; format: physicochemical
[6] = test system: LPS-stimulated RAW 264.7 cells (inducible nitric oxide synthase, iNOS); conditions: pre-treatment; prior studies; cited from earlier work
[7] = test system: LPS-stimulated human PBMCs (TNF production); assay: TNF production in LPS-stimulated human PBMCs; format: cell-based; conditions: CNI-1493 50 nM, FIG. 11; for enhancement of CNI-1493 activity (TNF suppression in PBMCs): fetuin 1.0 μg/ml or 10 μg/ml
[8] = test system: LPS-stimulated RAW 264.7 cells (TNF production); assay: TNF production (ELISA) in LPS-stimulated RAW 264.7 cells; format: cell-based, murine; conditions: for inhibition at 2.5 µM: RAW264.7, 4 h
Method: as §1, §2

arginine uptake = assay: Assay for arginine uptake; format: cell-based
[9] = test system: LPS-stimulated RAW 264.7 cells (LPS-inducible arginase II activity); assay: Urea production (LPS-inducible arginase II functional assay) in LPS-stimulated RAW 264.7 cells; format: cell-based, murine
Method: as §1, §2
Accumulation of urea in the cell culture medium was measured as a functional assay of LPS-inducible arginase II activity. […] The optical density at 535 nm was measured, and urea concentrations were calculated by comparison with OD535 of standard dilutions of urea prepared in culture medium.
Whole-cell lysate preparations were fractionated by sequential ultrafiltration over Amicon Centricon®-100, and Centricon®-30 filters, respectively.

NO production = conditions: background statement; cited from earlier work
[10] = test system: LPS-stimulated RAW 264.7 cells (LPS-inducible arginase II activity); conditions: pre-treatment; prior studies; cited from earlier work
[11] = test system: human peripheral blood mononuclear cells; conditions: background statement, cited from earlier work
[12] = test system: LPS-challenged mice (serum TNF); assay: Serum TNF levels in LPS-challenged mice; format: in vivo; conditions: fetuin 20 mg/kg pretreatment 1 hour; CNI-1493 2.5 mg/kg ip; LPS 13 mg/kg; serum at four hours; FIG. 12
Method: The fetuin pretreatment dose was 20 mg/kg.

[13] = LPS-activated macrophages, CNI-1493 alone
[14] = non-responsive cultures (≥56 hours after 1:4 split), CNI-1493 up to 5 μM

Molecule: CC(=NNC(=N)N)c1cc(NC(=O)CCCCCCCCC(=O)Nc2cc(C(C)=NNC(=N)N)cc(C(C)=NNC(=N)N)c2)cc(C(C)=NNC(=N)N)c1 [CNI-1493, N,N'-bis[3,5-bis[1-(aminoiminomethyl)hydrazonoethyl]phenyl]decanediamide tetrahydrochloride]
- anti-inflammatory effect, paw edema and inflammation (rat paw edema): suppression of rat paw edema and inflammation
- suppression of LPS-stimulated TNF production [1]: suppresses
- protection against lethal effects of endotoxin [2]: protects mice against lethal effects of endotoxin
- suppression of NO production [3, 13]: dose-dependent suppression
- inhibition at 2.5 µM ([3]; Mus musculus, RAW264.7, read-out: suppression of NO): > 50%
- inhibition at 2.5 µM ([3]; Mus musculus, RAW264.7, read-out: suppression of NO accumulation): < 10%
- IC50 ([3]; Mus musculus, RAW264.7, responsive cultures, stated as approximately the same as the urea IC50, read-out: IC50 with respect to NO production): < 2 µM
- effect on level of NO [3, 14]: not reduced
- suppression of several other cytokines such as IL-1 β, IL-6, MIP-1α, and MIP-1β [4]: suppresses
- charge at physiological pH [5]: four positive charges
- suppression of LPS-stimulated NO production [6]: suppresses
- suppression of TNF production in PBMCs by CNI-1493 [7]: active in suppressing TNF production
- suppression of TNF-α production [8, 13]: dose-dependent suppression
- inhibition at 2.5 µM ([8]; Mus musculus, read-out: suppression of TNF accumulation): < 10%
- inhibition at 2.5 µM ([8]; Mus musculus, read-out: suppression of TNF production): > 90%
- IC50 ([8]; Mus musculus, RAW264.7, responsive cultures, stated as approximately the same as the urea IC50, read-out: IC50 with respect to TNF production): < 2 µM
- inhibition of TNF levels in culture supernatants ([8]; low serum precultured (non-responsive) cells, FIG. 1): not responsive
- effect on level of TNF [8, 14]: not reduced
- IC50 (arginine uptake): ~10 µM
- suppression of urea production [9, 13]: dose-dependent suppression of urea production
- inhibition at 5 µM ([9]; Mus musculus, RAW264.7, 20 h, read-out: decrease in urea accumulation compared to control): > 95%
- inhibition at 2.5 µM ([9]; Mus musculus, RAW264.7, read-out: suppression of urea): > 50%
- inhibition at 2.5 µM ([9]; Mus musculus, RAW264.7, read-out: suppression of urea accumulation): < 10%
- IC50 ([9]; Mus musculus, RAW264.7, responsive cultures, estimated, read-out: IC50 (concentration of 50% inhibition) with respect to urea production): < 2 µM
- effect on level of urea [9, 14]: not reduced
- urea concentration, effect of CNI-1493 alone ([9]; partially non-responsive cells, 2.5 μM CNI-1493, FIG. 9): small degree of inhibitory activity
- IC50 (NO production): 5 µM
- suppression of LPS-stimulated urea production [10]: suppresses
- inhibition of TNF translation [11]: inhibits TNF (tumor necrosis factor) translation
- suppression of production of IL-1, IL-6, MIP-1α and MIP-1β ([11]; human peripheral blood mononuclear cells): suppresses the production of IL-1, IL-6, MIP-1α and MIP-1β

Molecule: α1-acid glycoprotein: other glycoprotein, net negatively charged at physiological pH
- augmentation of CNI-1493 activity (nitrite production) [3]: only fetuin was effective in augmenting CNI-1493 therapeutic activity

B1: asialofetuin: fetuin glycoprotein treated to remove terminal sialic acid residues (protein, UniProt P12763 19-359, looked up)
Alpha-2-HS-glycoprotein: IPLDPVAGYKEPACDDPDTEQAALAAVDYINKHLPRGYKHTLNQIDSVKVWPRRPTGEVYDIEIDTLETTCHVLDPTPLANCSVRQQTQHAVEGDCDIHVLKQDGQFSVLFTKCDSSPDSAEDVRKLCPDCPLLAPLNDSRVVHAVEVALATFNAESNGSYLQLVEISRAQFVPLPVSVSVEFAVAATDCIAKEVVDPTKCNLLAEKQYGFCKGSVIQKALGGEDVRVTCTLFQTQPVIPQPQPDGAEAEAPSAVPDAAGPTPSAAGPPVASVVVGPSVVAVPLPLHRAHYDLRHTFSGVASVESSSGEAFHVGKTPIVGQPSIPGGPVRLCPGRIRYFKI
modifications: desialylated
notes: fetuin glycoprotein treated to remove terminal sialic acid residues
- enhancement of CNI-1493 activity (suppression of urea production) ([9]; non-responsive cultures, glycoprotein 1.0 and 2.5 μg/ml, CNI-1493 2.5 μM, FIG. 10): not nearly as active as fetuin

B2: bovine fetuin (Sigma): globular 341-amino acid polypeptide with six internal disulfide bonds and three N-linked and two O-linked oligosaccharide chains (protein, UniProt P12763 19-359, looked up)
Alpha-2-HS-glycoprotein: IPLDPVAGYKEPACDDPDTEQAALAAVDYINKHLPRGYKHTLNQIDSVKVWPRRPTGEVYDIEIDTLETTCHVLDPTPLANCSVRQQTQHAVEGDCDIHVLKQDGQFSVLFTKCDSSPDSAEDVRKLCPDCPLLAPLNDSRVVHAVEVALATFNAESNGSYLQLVEISRAQFVPLPVSVSVEFAVAATDCIAKEVVDPTKCNLLAEKQYGFCKGSVIQKALGGEDVRVTCTLFQTQPVIPQPQPDGAEAEAPSAVPDAAGPTPSAAGPPVASVVVGPSVVAVPLPLHRAHYDLRHTFSGVASVESSSGEAFHVGKTPIVGQPSIPGGPVRLCPGRIRYFKI
- enhancement of CNI-1493 activity (TNF suppression in PBMCs) [7]: enhanced, in a dose-dependent fashion
- enhancement of CNI-1493 activity (suppression of serum TNF) [12]: greatly enhanced CNI-1493 therapeutic activity

B3: fetuin: globular protein of about 60-70 kDa, containing 20-25% carbohydrate (protein, UniProt P12763 19-359, looked up)
Alpha-2-HS-glycoprotein: IPLDPVAGYKEPACDDPDTEQAALAAVDYINKHLPRGYKHTLNQIDSVKVWPRRPTGEVYDIEIDTLETTCHVLDPTPLANCSVRQQTQHAVEGDCDIHVLKQDGQFSVLFTKCDSSPDSAEDVRKLCPDCPLLAPLNDSRVVHAVEVALATFNAESNGSYLQLVEISRAQFVPLPVSVSVEFAVAATDCIAKEVVDPTKCNLLAEKQYGFCKGSVIQKALGGEDVRVTCTLFQTQPVIPQPQPDGAEAEAPSAVPDAAGPTPSAAGPPVASVVVGPSVVAVPLPLHRAHYDLRHTFSGVASVESSSGEAFHVGKTPIVGQPSIPGGPVRLCPGRIRYFKI
- augmentation of CNI-1493 activity (nitrite production) [3]: only fetuin was effective in augmenting CNI-1493 therapeutic activity

B4: human fetuin glycoprotein: human fetuin glycoprotein (commercially prepared, Sigma) (protein)
chain: MKSLVLLLCLAQLWGCHSAPHGPGLIYRQPNCDDPETEEAALVAIDYINQNLPWGYKHTLNQIDEVKVWPQQPSGELFEIEIDTLETTCHVLDPTPVARCSVRQLKEHAVEGDCDFQLLKLDGKFSVVYAKCDSSPDSAEDVRKVCQDCPLLAPLNDTRVVHAAKAALAAFNAQNNGSNFQLEEISRAQLVPLPPSTYVEFTVSGTDCVAKEATEAAKCNLLAEKQYGFCKATLSEKLGGAEVAVTCTVFQTQPVTSQPQPEGANEAVPTPVVDPDAPPSPPLGAPGLPPAGSPPDSHVLLAAPPGHQLHRAHYDLRHTFMGVVSLGSPSGEVSHPRKTRTVVQPSVGAAAGPVVPPCPGRIRHFKV
- enhancement of CNI-1493 activity (TNF suppression in PBMCs) [7]: enhanced

B5: glycophorin: other glycoprotein, net negatively charged at physiological pH (protein, UniProt P02724 20-150, looked up)
Glycophorin-A: LSTTEVAMHTSTSSSVTKSYISSQTNDTHKRDTYAATPRAHEVSEISVRTVYPPEEETGERVQLAHHFSEPEITLIIFGVMAGVIGTILLISYGIRRLIKKSPSDVKPLPSPDTDVPLSSVEIENPETSDQ
- augmentation of CNI-1493 activity (nitrite production) [3]: only fetuin was effective in augmenting CNI-1493 therapeutic activity
